Reference: patent EP0350948B1, “Porphyrin derivatives” (TOYOHAKKA KOGYO KABUSHIKI KAISHA, priority 1988, dated 1990)

Tests used:
[1] = tested on: nitrosoamine-induced pancreatic cancer; assay: laser irradiation to the extirpated organ (excited fluorescent spectrum, N2-PLS measurement), tumor to tissue ratio; format: in vivo, Golden hamsters; settings: i.v. 25 mg/kg bodyweight, organs extirpated at 24 hours after administration
Method: Golden hamsters (males, 5 per group, bodyweight approximately 150 g) were implanted subcutaneously tumor cells of the nitrosoamine-induced pancreatic cancer. After 14 to 21 days following implantation, animals were intravenously (i.v.) administered the test substance EG-Ga-DP-diGly (10 mg/ml) which had been diluted with phosphate buffer at 25 mg/kg bodyweight. At 24 hours after administration, the organs including the tumor were extirpated, irradiated with N2-pulsed laser (N2, 337 nm, 2 ns, 400 - 1000 nm), and measured of excited fluorescent spectrum. The wavelengths of 600 - 900 nm were studied using the peak wavelength of NADH at 470 nm as a reference. (N2-PLS measurement). […] (Tumor to tissue ratio).
Excited fluorescent spectra of the organs extirpated at 24 hours after administration were measured, and the peak wavelength at 600 - 900 nm was calculated by setting the peak wavelength at 470 nm as the reference 1. As fluorescence in Mn, Fe and Cu complexes is not sufficiently intense as to enable N2-PLS measurement, the extraction method was applied to these compounds. At 24 hours following administration, the organs were extracted with an organic solvent (such as chloroform-methanol) via acetone powder, and the obtained extract was measured of UV or HPLC to calculate the tumor to tissue ratio.

[2] = tested on: nitrosoamine-induced pancreatic cancer; assay: in vivo hemorrhagic necrosis effect; design: species or system hamsters; key to Hemorrhagic necrosis effect: four scales of G4, G3, G2 and G1; four scales of G4, G3, G2 and G1; four scales of G4, G3, G2 and G1; four scales of G4, G3, G2 and G1; settings: for photograph of a cancer mass (Fig. 2): 24 hours after administration, Cn-Ga-DP-diAsp, n = even numbers; for Hemorrhagic necrosis effect: intensity of hemorrhagic necrosis at 24 hours following i.v. administration, and pathological study
Method: Cancer bearing hamsters of Experiment 1 were i.v. administered the test substance C6-Ga-DP-diAsp (10) (10 mg/ml) which had been diluted with phosphate buffer at 25 mg/kg bodyweight and 12.5 mg/kg bodyweight respectively. The animals were exsanguinated and autopsied at 24 hours after administration, and observed.
The evaluation was based on the four scales of G4, G3, G2 and G1.

[3] = tested on: nitrosoamine-induced pancreatic cancer; assay: in vivo irradiation therapy using Yag laser; design: species or system hamsters; settings: i.v. 12.5 mg/kg bodyweight, Yag laser 1064 nm, 5 w, 10 sec x 4 at 24 hours after administration, autopsy 24 hours following irradiation
Method: Tumor bearing hamsters of Experiment 1 were i.v. administered the test materials C6-Ga-DP-diAsp (10) and C10 -Ga-DP-diAsp (16) (10 mg/ml) at 12.5 mg/kg bodyweight. At 24 hours after administration, the hair above the tumor site was shaved and irradiation with Yag laser commenced (1064 nm, 5 w, 10 sec x 4). At 24 hours following irradiation, the animals were exsanguinated and autopsied for observation.

[4] = luminescence properties of porphyrin derivatives (Table 1); format: physicochemical
Source text: There are two stages of destruction; Mechanism I under which the pigments are excited by light to assume the triple state which directly destroys the cancer cells, and Mechanism II under which the pigments in the triple state further excite oxygen to form the singlet state oxygen (activated oxygen) leading to cell necrosis. In the case of porphyrin derivatives, the Mechanism II is considered prevalent. By measuring the triple state life time (the fluorescence and phosphorescence life time) which indicates porphyrin's triple state, the length of phosphorescence life time is compared to reveal the intensity of photo-sensitivity. […] In other words, phosphorescence life time of metalloporphyrins coordinated with such metals as Zn and Ga is long while that of those coordinated with Mn, Fe, or Cu is very short.

[5] = tested on: Leukemia cells of a mouse (P388); assay: in vitro photosensitivity test (cell growth inhibition ratio); format: cell-based; settings: irradiated at 10,000 lux for 1 hour, incubated for 48 hours, versus group shielded from light
Method: Leukemia cells of a mouse (P388) were placed in wells (a plate with 24 wells) at 5 x 10^4/well, and incubated for 2 hours. The test materials C8-Ga-DP-diAsp (12), C10-Mn-DP-diAsp (37) and photofrin II each at concentrations of 1.56, 3.13, 6.25, 12.5, 25, and 50 ng/ml (common ratio : 2) were prepared. The specified amounts of these test solutions were added to the above culture, irradiated at 10,000 lux for 1 hour, incubated for 48 hours, and the cells per one well were counted. A group shielded from light using an aluminium foil during irradiation was provided as control. The index of photosensitivity was obtained by dividing the cell counts of the respective groups with the cell count of an untreated group provided separately (cell growth inhibition ratio (%)).
However, this was attributed to the toxicity of the test material per se rather than to irradiation.

[6] = tested on: nitrosoamine-induced pancreatic cancer; assay: in vivo cell growth inhibition effect (tumor size by slide calipers); design: species or system hamsters; settings: i.v. 25 mg/kg bodyweight
Method: Tumor bearing hamsters of Experiment 1 were i.v. administered the test substance C10-Mn-DP-diAsp (37) (10 mg/ml) diluted by phosphate buffer at 25 mg/kg bodyweight. The tumor size was measured supracutaneously using slide calipers on an appropriate day following administration.

[7] = tested on: nitrosoamine-induced pancreatic cancer; assay: pathology of tumor and organs (hematoxylin-eosin sections); format: in vivo, hamsters; settings: treated as in Experiment 2, formalin fixed
Method: Tumor bearing hamsters of Experiment 1 were treated similarly as in Experiment 2 except that they were administered C12-Mn-DP-diAsp (48) instead of C6-Ga-DP-diAsp (10). Organs including the tumor (the treated group and the control group) were fixed with formalin, embedded in paraffin, cut into sections, double stained with hematoxylin-eosin, and observed pathologically.
Figs. 4 and 5 show photographs of the tumor cell necrosis of the treated group. There were many cell necrosis images and necrotic layers which were not present in the non-cancerous organs and the control group.

[8] = i.v. 25 mg/kg and 12.5 mg/kg bodyweight, autopsy at 24 hours after administration

| Compound | tumor/tissue cancer/ kidney [1] | tumor/tissue cancer/ liver [1] | tumor/tissue cancer/ lung [1] | tumor/tissue cancer/ serum [1] | Absorbance [4] [nm] | Phosphorescence life time ([4]; Filter paper) | Fluorescence [4] [nm] | photograph of a cancer mass (Fig. 2) [2] | Hemorrhagic necrosis effect [2] | further results |
| --- | --- | --- | --- | --- | --- | --- | --- | --- | --- | --- |
| CCCCCCOC(C)C1=C(C)C2=Cc3c(C(C)OCCCCCC)c(C)c4[n]3[Ga][n]3c(c(C)c(CCC(=O)NC(CC(=O)O)C(=O)O)c3=CC3=NC(=C4)C(C)=C3CCC(=O)NC(CC(=O)O)C(=O)O)=CC1=N2 (centres unmarked) [(10) C6-Ga-DP-diAsp, 2,4-bis(1-hexyloxyethyl)-Ga-deuteroporphynyl diaspartic acid] | 6.86 | 5.33 | 5.33 | 0.98 | – | – | – | hemorrhagic necrosis | G4 | changes of the organs such as the liver, lungs, kidneys excluding the tumor [2, 8]: showed no changes; effect on the cancer mass [2, 8]: developed hemorrhagic necrosis; state of the cancer mass after Yag laser irradiation [3]: necrotic |
| CCCCCCCCCCOC(C)C1=C(C)c2cc3[nH]c(cc4nc(cc5[nH]c(cc1n2)c(C)c5C(C)OCCCCCCCCCC)C(C)=C4CCC(=O)NC(CC(=O)O)C(=O)O)c(CCC(=O)NC(CC(=O)O)C(=O)O)c3C.[Mn] (centres unmarked) [(37) C10-Mn-DP-diAsp, 2,4-bis(1-decyloxyethyl)-Mn-deuteroporphynyl diaspartic acid] | – | – | – | – | – | – | – | – | G3 | photosensitivity [5]: no photosensitivity; tumor growth compared to the control group (Fig. 6) [6]: notable tumor growth inhibitory effect |
| CCCCCCCCCCCCOC(C)C1=C(C)C2=Cc3c(C(C)OCCCCCCCCCCCC)c(C)c4[n]3[Mn][n]3c(c(C)c(CCC(=O)NC(CC(=O)O)C(=O)O)c3=CC3=NC(=C4)C(C)=C3CCC(=O)NC(CC(=O)O)C(=O)O)=CC1=N2 (centres unmarked) [(48) C12-Mn-DP-diAsp, 2,4-bis(1-dodecyloxyethyl)-Mn-deuteroporphynyl diaspartic acid] | – | – | – | – | – | – | – | – | G4 | tumor growth compared to the control group (Fig. 6) [6]: notable tumor growth inhibitory effect; pathological observation of the tumor (Fig. 4) [7]: necrotic tumor cells |
| CCCCCCCCOC(C)C1=C(C)C2=Cc3c(C(C)OCCCCCCCC)c(C)c4[n]3[Ga][n]3c(c(C)c(CCC(=O)NC(CC(=O)O)C(=O)O)c3=CC3=NC(=C4)C(C)=C3CCC(=O)NC(CC(=O)O)C(=O)O)=CC1=N2 (centres unmarked) [(12) C8-Ga-DP-diAsp, 2,4-bis(1-octyloxyethyl)-Ga-deuteroporphynyl diaspartic acid] | 2.12 | 1.47 | 2.20 | 0.29 | – | – | – | hemorrhagic necrosis | G3 | concentration at which photosensitivity is manifested [5]: ≥ 1.0 ng/mL |

More lines, main results first:

| tumor/tissue cancer/ kidney [1] | tumor/tissue cancer/ liver [1] | tumor/tissue cancer/ lung [1] | tumor/tissue cancer/ serum [1] | Absorbance [4] [nm] | Phosphorescence life time ([4]; Filter paper) | Fluorescence [4] [nm] | Compound | photograph of a cancer mass (Fig. 2) [2] | Hemorrhagic necrosis effect [2] | further results |
| --- | --- | --- | --- | --- | --- | --- | --- | --- | --- | --- |
| 16.44 | 11.54 | 23.08 | 2.78 | – | – | – | CCCCCCCCCCOC(C)C1=C(C)c2cc3[nH]c(cc4nc(cc5[nH]c(cc1n2)c(C)c5C(C)OCCCCCCCCCC)C(C)=C4CCC(=O)NC(CC(=O)O)C(=O)O)c(CCC(=O)NC(CC(=O)O)C(=O)O)c3C.[Ga] (centres unmarked) [(16) C10-Ga-DP-diAsp, 2,4-bis(1-decyloxyethyl)-Ga-deuteroporphynyl diaspartic acid] | hemorrhagic necrosis | G2 | state of the cancer mass after Yag laser irradiation [3]: necrotic |
| – | – | – | – | 572 | 20 µs | – | C=CC1=C(C)c2cc3[n-]c(cc4nc(cc5[n-]c(cc1n2)c(C)c5CCC(=O)OC)C(CCC(=O)OC)=C4C)c(C)c3C=C.[Cu+2] [Cu-PP-Me] | – | – | Phosphorescence [4]: 705 nm; Phosphorescence life time ([4]; Solution): 100 µs |
| – | – | – | – | 570 | – | – | C=CC1=C(C)c2cc3[n-]c(cc4nc(cc5[n-]c(cc1n2)c(C)c5CCC(=O)OC)C(CCC(=O)OC)=C4C)c(C)c3C=C.[Co+2] [Co-PP-Me] | – | – | – |
| – | – | – | – | 633 | 1.8 ms | 635 | C=Cc1c(C)c2cc3[nH]c(cc4nc(cc5nc(cc1[nH]2)C(C)=C5CCC(=O)OC)C(CCC(=O)OC)=C4C)c(C)c3C=C [PP-Me] | – | – | – |
| – | – | – | – | 570 | 50 ms | 575 | Ga-protoporphyrin dimethyl ester [Ga-PP-Me] | – | – | Phosphorescence [4]: 715 nm; Phosphorescence life time ([4]; Solution): 200 ms |
| – | – | – | – | 590 | – | 600 | C=CC1=C(C)c2cc3[n-]c(cc4nc(cc5[n-]c(cc1n2)c(C)c5CCC(=O)OC)C(CCC(=O)OC)=C4C)c(C)c3C=C.[Mg+2] [Mg-PP-Me] | – | – | – |
